ChEMBL document CHEMBL1201862, “PubChem BioAssay data set” (2004)
Blank lines part the entries; values can stand above or below the molecule they belong to. Active and inactive are the calls of the source.

Columns and labels:
[1] = system: BJ; assay: BJ-TERT fibroblast viability loss – cell-based, RAS-independent, luminescence, dose response (AID 1933); type: functional; settings: Homo sapiens
[2] = system: BJ; assay: cells; type: functional, cell-based; settings: Homo sapiens
[3] = system: BJ; assay: BJ-TERT-LT-ST fibroblast viability loss – cell-based, RAS-independent, luminescence, dose response (AID 1935); type: functional; settings: Homo sapiens;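 further: BJ fibroblasts immortalized with TERT plus LT and ST oncogenes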
[4] = DRD fibroblast viability loss – cell-based, non-viral oncogenic, luminescence, dose response (AID 1934); type: functional; settings: Homo sapiens
[5] = system: BJ; assay: growth inhibition of engineered Ras-driven BJ cells – cell-based, alamar blue fluorescence, cherrypicked samples, dose response (AID 2631); type: functional; settings: Homo sapiens;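 further: confirmatory dose-response assay in RAS-dependent BJ fibroblasts engineered with TERT, LT and ST, with cytotoxicity read by fluorescence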
[6] = biological target: T1, Fatty acid synthase (Homo sapiens, UniProt P49327); assay: inhibition of human FAS-TE enzyme activity – biochemical, endpoint fluorescence intensity, uHTS hits, dose response (AID 624327); type: functional;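 further: fluorescence from hydrolysis of an O-methyl fluorescein acyl ester substrate by the enzyme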
[7] = biological target: T1, Fatty acid synthase; assay: inhibition of human FAS-TE enzyme activity – biochemical, kinetic fluorescence intensity, dose response (AID 624326); type: functional;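 further: rate of fluorescence rise from hydrolysis of a fluorogenic O-methyl fluorescein ester substrate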
[8] = biological target: Eukaryotic translation initiation factor 4E (Mus musculus, UniProt P63073); assay: blockers of eIF4G binding by eIF4E – biochemical, TR-FRET, dose response (AID 855); type: functional;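 further: potency for disrupting eIF4E binding to eIF4GI seen as loss of FRET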
[9] = biological target: T2, Glutathione-S-transferase (Schistosoma japonicum, UniProt Q26513); assay: GST-antibody interaction or FRET quenching – biochemical, TR-FRET, artefact control for Vif-APOBEC3G degradation inhibitor project, dose response (AID 1117362); type: functional
T2 sequence (Q26513 whole entry): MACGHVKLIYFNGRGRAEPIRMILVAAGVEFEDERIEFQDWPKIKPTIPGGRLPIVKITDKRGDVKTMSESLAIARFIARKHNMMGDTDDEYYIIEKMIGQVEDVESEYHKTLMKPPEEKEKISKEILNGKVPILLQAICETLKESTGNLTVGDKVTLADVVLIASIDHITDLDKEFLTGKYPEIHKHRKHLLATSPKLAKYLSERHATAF

[10] = biological target: T3, Caspase-3 (Homo sapiens, UniProt P42574); type: functional;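 further: Dose-response selectivity test against caspase-3 for candidate inhibitors of sentrin-specific proteases (SENPs)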
T3 sequence (P42574 whole entry): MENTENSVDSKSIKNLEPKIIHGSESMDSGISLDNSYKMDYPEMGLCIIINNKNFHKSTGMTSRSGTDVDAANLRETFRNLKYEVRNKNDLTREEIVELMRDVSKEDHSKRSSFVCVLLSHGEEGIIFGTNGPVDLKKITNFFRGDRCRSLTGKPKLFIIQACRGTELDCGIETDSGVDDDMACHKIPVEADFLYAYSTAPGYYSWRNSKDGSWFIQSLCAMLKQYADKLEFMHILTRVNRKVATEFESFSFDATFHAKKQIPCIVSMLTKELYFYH

[11] = biological target: T4, Sentrin-specific protease 7 (Homo sapiens, UniProt Q9BQF6); type: functional;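 further: Luminescence-based dose-response confirmation of ultra-high-throughput screening hits, measuring inhibition of SENP7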
T4 sequence (Q9BQF6 whole entry): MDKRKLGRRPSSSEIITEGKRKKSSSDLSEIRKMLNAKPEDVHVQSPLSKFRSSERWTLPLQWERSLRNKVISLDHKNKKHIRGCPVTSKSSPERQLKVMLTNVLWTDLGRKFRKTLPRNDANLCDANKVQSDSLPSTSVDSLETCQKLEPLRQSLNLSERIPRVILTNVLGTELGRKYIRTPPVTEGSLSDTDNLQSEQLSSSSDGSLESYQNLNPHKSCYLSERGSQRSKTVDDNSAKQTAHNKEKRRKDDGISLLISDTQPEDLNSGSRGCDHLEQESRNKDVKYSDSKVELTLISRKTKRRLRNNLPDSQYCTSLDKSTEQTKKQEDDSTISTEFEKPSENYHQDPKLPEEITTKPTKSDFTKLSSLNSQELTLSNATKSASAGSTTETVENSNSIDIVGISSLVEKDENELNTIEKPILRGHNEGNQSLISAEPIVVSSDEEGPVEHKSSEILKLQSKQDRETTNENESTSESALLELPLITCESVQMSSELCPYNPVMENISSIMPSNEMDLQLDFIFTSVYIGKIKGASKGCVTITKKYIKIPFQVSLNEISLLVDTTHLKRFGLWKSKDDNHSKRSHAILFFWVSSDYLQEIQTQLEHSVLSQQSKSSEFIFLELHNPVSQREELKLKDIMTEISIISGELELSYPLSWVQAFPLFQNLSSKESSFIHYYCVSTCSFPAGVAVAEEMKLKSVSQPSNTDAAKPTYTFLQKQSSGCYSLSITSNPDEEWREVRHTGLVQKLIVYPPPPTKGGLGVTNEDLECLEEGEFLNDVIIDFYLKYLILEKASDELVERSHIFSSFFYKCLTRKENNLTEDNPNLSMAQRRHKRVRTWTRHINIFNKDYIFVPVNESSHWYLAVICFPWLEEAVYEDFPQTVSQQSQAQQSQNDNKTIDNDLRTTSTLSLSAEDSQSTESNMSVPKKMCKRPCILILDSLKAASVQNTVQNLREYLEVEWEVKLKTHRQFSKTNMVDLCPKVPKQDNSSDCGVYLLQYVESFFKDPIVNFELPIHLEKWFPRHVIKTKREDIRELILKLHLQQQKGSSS

[12] = biological target: T5, Sentrin-specific protease 6 (Homo sapiens, UniProt Q9GZR1); type: functional;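 further: Luminescence-based dose-response confirmatory assay of SENP6 inhibition, following up an ultra-high-throughput screen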
T5 sequence (Q9GZR1 whole entry): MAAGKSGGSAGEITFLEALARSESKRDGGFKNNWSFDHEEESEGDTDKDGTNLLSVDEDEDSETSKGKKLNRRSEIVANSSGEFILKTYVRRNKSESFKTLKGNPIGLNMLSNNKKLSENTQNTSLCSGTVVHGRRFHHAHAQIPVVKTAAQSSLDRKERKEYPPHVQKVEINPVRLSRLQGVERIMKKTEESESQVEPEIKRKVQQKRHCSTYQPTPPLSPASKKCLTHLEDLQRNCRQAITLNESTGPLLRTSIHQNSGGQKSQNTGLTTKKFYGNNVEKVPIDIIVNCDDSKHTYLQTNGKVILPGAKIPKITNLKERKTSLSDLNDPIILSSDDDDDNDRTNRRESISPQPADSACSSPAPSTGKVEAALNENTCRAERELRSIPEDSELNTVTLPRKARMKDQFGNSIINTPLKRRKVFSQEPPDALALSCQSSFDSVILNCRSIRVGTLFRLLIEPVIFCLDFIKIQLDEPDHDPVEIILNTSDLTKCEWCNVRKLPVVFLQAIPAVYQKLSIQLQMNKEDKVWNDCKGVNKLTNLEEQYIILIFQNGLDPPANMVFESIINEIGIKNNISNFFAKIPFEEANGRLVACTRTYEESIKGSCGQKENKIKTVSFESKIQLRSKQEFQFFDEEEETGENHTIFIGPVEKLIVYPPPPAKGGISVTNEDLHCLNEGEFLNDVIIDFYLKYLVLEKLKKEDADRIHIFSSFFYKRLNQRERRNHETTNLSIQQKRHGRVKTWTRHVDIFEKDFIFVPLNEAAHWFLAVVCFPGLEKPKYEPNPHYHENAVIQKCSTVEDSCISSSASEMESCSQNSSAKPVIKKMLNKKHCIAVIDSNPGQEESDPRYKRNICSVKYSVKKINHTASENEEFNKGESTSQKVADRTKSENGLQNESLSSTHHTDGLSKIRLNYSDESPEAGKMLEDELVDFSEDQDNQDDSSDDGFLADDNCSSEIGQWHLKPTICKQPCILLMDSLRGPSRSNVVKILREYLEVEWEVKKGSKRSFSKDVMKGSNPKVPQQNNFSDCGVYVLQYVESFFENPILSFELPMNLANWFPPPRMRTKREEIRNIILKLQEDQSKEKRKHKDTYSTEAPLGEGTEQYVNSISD

[13] = biological target: T6, Sentrin-specific protease 8 (Homo sapiens, UniProt Q96LD8); type: functional;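 further: luminescence read-out of SENP8 inhibition, dose-response confirmation following an ultra-high-throughput screen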
T6 sequence (Q96LD8 whole entry): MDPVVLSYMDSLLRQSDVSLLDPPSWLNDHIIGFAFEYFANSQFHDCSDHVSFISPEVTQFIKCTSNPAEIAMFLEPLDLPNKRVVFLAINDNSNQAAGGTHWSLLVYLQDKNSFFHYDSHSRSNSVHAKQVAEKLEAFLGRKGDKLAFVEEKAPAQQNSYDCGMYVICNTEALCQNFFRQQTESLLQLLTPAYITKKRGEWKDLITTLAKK

[14] = biological target: T7, fMet-Leu-Phe receptor (Homo sapiens, UniProt P21462); assay: formyl peptide receptor binders – dose response (AID 519); type: functional
T7 sequence (P21462 whole entry): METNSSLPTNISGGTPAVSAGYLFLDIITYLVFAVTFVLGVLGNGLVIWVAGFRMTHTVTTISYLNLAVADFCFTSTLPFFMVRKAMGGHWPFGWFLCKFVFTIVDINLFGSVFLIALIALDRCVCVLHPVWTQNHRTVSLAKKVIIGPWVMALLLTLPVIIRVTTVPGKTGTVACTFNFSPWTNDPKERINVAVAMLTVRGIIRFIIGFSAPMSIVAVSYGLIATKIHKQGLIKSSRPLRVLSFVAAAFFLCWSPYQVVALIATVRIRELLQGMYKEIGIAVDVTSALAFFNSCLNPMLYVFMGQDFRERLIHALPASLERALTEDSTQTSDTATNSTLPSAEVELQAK

[15] = biological target: T8, Microphthalmia-associated transcription factor (Homo sapiens, UniProt O75030); assay: reducers of TRPM1 reporter luminescence, concentration series – cell-based, SK-MEL-5, cherry-picked, set 3, MITF inhibitor project, dose response (AID 493073); type: functional;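 further: SK-MEL-5 melanoma cells with luciferase driven by the MITF target TRPM1 promoter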
T8 sequence (O75030 whole entry): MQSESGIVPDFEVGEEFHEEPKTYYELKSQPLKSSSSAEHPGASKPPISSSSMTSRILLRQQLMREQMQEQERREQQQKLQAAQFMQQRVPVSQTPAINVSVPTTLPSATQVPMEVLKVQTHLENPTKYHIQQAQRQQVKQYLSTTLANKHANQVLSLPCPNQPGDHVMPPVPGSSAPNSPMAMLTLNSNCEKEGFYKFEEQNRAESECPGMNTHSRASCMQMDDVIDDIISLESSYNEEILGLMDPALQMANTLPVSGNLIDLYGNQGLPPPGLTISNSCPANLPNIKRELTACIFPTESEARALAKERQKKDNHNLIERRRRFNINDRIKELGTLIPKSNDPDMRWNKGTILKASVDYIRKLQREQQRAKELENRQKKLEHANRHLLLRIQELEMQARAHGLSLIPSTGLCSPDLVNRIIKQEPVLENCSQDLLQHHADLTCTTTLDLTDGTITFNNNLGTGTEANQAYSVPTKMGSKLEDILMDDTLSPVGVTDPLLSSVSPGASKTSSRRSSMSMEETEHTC

[16] = reduced cellular PGC1a acetyl-lysine signal – cell-based, cherry-picked samples, dose response (AID 720514); type: functional;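 further: potency may reflect raised or lowered acetylation signal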
[17] = A549 cell cytotoxicity, dose response, cytotoxicity control, plate reader, cherry-pick, antagonist series (AID 743412); type: functional, cell-based
[18] = toxicity toward HepG2 liver cells – cell-based, plate reader, cherry-pick, antagonist series, cytotoxicity control, dose response (AID 743416); type: functional
[19] = blockers of bursicon-stimulated LGR2 cAMP reporter – cell-based, HEK293, CRE-luciferase reporter, cherry pick, set 2, dose response (AID 743343); type: functional;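 further: transfected cells were stimulated with diluted bursicon conditioned medium after compound addition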
[20] = blockade of melanocortin 4 receptor signaling – cell-based, plate reader, cherry pick, counter-screen for LGR2 antagonist project, dose response (AID 743444); type: functional;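 further: transfected HEK 293 cells stimulated with alpha-MSH peptide; potency of inhibitors of the alpha-MSH evoked signal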
[21] = viability loss in HEK293 cells – cell-based, plate reader, cherry-picked samples, cytotoxicity control, dose response (AID 743446); type: functional

T1 sequence (P49327 whole entry): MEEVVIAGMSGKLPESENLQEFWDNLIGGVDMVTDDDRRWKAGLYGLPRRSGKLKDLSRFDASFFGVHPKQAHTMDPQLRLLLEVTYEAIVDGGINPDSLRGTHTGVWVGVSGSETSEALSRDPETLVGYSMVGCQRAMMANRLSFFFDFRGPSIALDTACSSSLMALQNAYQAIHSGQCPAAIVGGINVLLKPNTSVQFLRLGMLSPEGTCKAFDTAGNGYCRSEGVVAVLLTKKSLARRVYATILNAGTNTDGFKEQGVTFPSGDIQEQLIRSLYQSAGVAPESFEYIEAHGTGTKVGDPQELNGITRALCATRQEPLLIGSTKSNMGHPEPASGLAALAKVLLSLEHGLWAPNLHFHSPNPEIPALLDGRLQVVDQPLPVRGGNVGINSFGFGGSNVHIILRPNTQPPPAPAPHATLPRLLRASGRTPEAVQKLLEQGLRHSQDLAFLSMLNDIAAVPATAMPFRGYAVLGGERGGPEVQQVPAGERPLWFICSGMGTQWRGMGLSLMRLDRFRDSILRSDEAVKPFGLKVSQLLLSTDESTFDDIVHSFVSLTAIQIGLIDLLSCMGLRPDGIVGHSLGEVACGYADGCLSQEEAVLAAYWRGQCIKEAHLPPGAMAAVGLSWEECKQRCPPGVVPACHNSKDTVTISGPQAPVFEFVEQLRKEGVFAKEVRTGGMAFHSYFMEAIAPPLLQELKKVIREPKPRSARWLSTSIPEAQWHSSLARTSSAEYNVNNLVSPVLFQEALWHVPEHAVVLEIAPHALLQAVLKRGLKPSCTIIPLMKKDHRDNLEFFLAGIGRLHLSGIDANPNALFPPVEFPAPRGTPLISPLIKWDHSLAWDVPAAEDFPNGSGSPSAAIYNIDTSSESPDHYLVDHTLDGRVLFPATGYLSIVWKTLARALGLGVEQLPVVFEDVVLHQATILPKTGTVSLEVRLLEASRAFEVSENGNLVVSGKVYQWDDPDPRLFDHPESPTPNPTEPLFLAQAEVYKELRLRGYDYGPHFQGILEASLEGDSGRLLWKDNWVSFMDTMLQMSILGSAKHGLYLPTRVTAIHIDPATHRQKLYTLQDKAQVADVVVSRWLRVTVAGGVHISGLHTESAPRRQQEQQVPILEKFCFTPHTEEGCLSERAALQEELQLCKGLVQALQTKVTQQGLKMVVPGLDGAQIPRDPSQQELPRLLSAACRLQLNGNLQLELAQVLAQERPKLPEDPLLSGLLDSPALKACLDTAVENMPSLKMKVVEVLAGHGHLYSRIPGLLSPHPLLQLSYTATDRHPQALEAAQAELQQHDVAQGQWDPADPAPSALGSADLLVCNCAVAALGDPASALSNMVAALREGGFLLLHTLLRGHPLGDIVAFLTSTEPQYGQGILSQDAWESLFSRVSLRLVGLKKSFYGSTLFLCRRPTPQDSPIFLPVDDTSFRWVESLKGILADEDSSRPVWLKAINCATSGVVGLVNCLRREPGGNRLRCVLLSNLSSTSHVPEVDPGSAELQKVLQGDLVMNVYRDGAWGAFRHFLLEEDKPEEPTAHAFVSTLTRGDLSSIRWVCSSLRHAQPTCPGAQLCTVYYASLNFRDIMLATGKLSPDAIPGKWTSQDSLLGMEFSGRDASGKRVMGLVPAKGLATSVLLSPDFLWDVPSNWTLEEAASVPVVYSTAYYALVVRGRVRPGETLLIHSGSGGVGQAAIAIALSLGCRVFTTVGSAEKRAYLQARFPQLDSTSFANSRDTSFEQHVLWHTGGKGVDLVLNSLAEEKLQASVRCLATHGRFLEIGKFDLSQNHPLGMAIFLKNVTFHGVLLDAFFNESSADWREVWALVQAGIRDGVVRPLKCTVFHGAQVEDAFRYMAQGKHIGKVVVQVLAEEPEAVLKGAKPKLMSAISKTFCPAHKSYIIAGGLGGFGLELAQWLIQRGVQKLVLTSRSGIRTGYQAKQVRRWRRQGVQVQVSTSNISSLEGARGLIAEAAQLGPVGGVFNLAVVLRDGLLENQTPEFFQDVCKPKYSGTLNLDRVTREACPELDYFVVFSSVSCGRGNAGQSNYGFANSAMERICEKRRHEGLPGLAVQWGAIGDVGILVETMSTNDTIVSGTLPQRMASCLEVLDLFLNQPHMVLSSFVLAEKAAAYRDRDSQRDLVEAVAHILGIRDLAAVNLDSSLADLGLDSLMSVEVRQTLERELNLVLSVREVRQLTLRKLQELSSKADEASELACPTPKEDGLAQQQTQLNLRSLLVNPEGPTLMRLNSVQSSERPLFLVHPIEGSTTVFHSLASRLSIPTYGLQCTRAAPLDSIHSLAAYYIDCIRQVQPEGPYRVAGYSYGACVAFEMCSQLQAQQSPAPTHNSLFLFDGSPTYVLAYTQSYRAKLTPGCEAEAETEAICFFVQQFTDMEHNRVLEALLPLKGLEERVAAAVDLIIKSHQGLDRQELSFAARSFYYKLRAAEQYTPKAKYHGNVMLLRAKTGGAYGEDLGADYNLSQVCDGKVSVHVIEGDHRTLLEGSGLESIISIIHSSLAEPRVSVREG
Sequence of Eukaryotic translation initiation factor 4E (P63073 whole entry): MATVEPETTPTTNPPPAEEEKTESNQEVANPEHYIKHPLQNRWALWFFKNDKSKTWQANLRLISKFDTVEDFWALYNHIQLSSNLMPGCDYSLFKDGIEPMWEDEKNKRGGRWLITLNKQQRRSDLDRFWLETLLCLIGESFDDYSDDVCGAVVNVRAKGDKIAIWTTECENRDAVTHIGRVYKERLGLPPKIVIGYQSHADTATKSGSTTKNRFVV

Compound: Brc1nc(-c2ccccc2)nc(-c2ccccc2)c1Br
EC50 [1]: 8.57 µM (inconclusive)
EC50 [2]: 14 µM (active)
EC50 [3]: 7.93 µM (inconclusive)
EC50 [4]: 10.2 µM (active)
EC50 [5]: 4.95 µM (active)

Compound: COC(=O)c1ccc(CSc2nc(C(F)F)cc(C)c2C#N)o1
IC50 [6]: 17.2 µM (active)
IC50 [7]: 18.6 µM (active)

Compound: Cn1nnnc1Sc1ncnc2scc(-c3ccc(C#N)cc3)c12
AC50 [15]: 4.98 µM (active)
AC50 [16]: 8.12 µM (active)
AC50 [17]: 7.28 µM (active)
AC50 [18]: 7.68 µM (active)
AC50 [19]: 5.18 µM (active)
AC50 [20]: 3.6 µM (active)
AC50 [21]: 10.9 µM (active)

Compound: O=C(/C=C/c1ccc(F)cc1)NNC(=O)CCN1CCN(Cc2ccccc2)CC1
EC50 [1]: 19.1 µM (active)
EC50 [2]: 3.53 µM (active)
EC50 [3]: 2.15 µM (active)
EC50 [4]: 2.92 µM (active)
EC50 [5]: > 133 µM (inactive)

Compound: c1ccc(Nc2nnc(-c3cccc4ccccc34)o2)cc1
IC50 [10]: > 100 µM (inactive)
IC50 [11]: > 100 µM (inactive)
IC50 [12]: > 100 µM (inactive)
IC50 [13]: > 100 µM (inactive)

Continued, in another order:

IC50 [6]: 5.4 µM (active)
IC50 [7]: 5.8 µM (active)
Compound: O=[N+]([O-])c1ccc(S(=O)(=O)NN=Cc2ccc3c(c2)OCO3)cc1

IC50 [8]: 50 µM (inactive)
IC50 [9]: > 100 µM (active)
Compound: O=C(COc1ccccc1Cl)c1ccc[nH]1

IC50 [10]: 16.1 µM (active)
IC50 [11]: 4.23 µM (active)
IC50 [12]: 12 µM (active)
Compound: COc1ccc(-c2nnc(SCc3ccccc3F)o2)cc1
IC50 [13]: 12.2 µM (active)

IC50 [10]: 47 µM (active)
IC50 [11]: 7.07 µM (active)
IC50 [12]: 42 µM (active)
Compound: O=C(Nc1cccc(F)c1)c1ccc(-c2ccccc2Cl)o1
IC50 [13]: 53.7 µM (active)

Ki [14]: 63.3 µM (inactive)
Compound: COc1ccccc1-n1c(CNC(=O)c2ccco2)nnc1SCC(=O)Nc1ccc(F)cc1
